Here are results for five compounds from patent US5703050A (Hoechst Aktiengesellschaft, priority 1993, dated 1997).

The IC50 is the point on the concentration scale where inhibition reaches its midpoint. As usually defined, the Ki is the dissociation constant of the complex between target and ligand, obtained from inhibition or displacement.

For experiment [1], the system named is gel-filtered human platelets. The experiment is described as follows: Inhibition of the aggregation of gel-filtered human platelets after ADP or thrombin stimulation. It counts as cell-based. The following applies: platelet aggregation. Here is the method:
(§1) The compounds are tested in particular for their inhibitory effect on blood platelet aggregation and the adhesion of fibrinogen to blood platelets. Gel-filtered blood platelets from human donor blood are used, which are activated with ADP or thrombin.
As a functional test, the inhibition of the aggregation of gel-filtered human platelets is measured after ADP or thrombin stimulation by the compounds according to the invention. The IC50 value of the inhibition is indicated (reference: G. A. Marguerie et al., J. Biol. Chem. 254 (1979), 5357-5363).

In experiment [2] the target is T1, fibrinogen receptor (glycoprotein IIb/IIIa) (Homo sapiens, UniProt P05106+P08514).
T1 construct: its receptor (glycoprotein IIb/IIIa) on intact, gel-filtered human platelets; endogenous in cells; host or cells: gel-filtered platelets from human donor blood, stimulated with ADP (10 uM)
Put plainly: Inhibition of binding of 125I-fibrinogen to its receptor on intact, gel-filtered human platelets. To be noted: inhibition of 125I-fibrinogen binding after stimulation with ADP (10 μM), read-out: Ki (μM), ADP-stimulated. As to the method:
as §1
The inhibition of the binding of fibrinogen to its receptor (glycoprotein IIb/IIIa) on intact, gel-filtered human platelets by the compounds according to the invention is tested. The Ki value of the inhibition of binding of 125I-fibrinogen after stimulation with ADP (10 μM) is indicated. (Reference: J. S. Bennett and G. Vilaire, J. Clin. Invest. 64 (1979) 1393-1401; E. Kornecki et al., J. Biol. Chem. 256 (1981), 5695-5701; G. A. Marguerie et al., J. Biol. Chem. 254 (1979) 5357-5363; G. A. Marguerie et al., J. Biol. Chem. 255 (1980) 154-161.)

[3] abbreviates: ADP stimulation, read-out: ADP-stimulated IC50.
Setting [4] is: thrombin stimulation, read-out: thrombin-stimulated IC50.

Like-named read-outs stand apart in the source and are kept apart here.

T1 sequence (P08514 32-887 limits assumed): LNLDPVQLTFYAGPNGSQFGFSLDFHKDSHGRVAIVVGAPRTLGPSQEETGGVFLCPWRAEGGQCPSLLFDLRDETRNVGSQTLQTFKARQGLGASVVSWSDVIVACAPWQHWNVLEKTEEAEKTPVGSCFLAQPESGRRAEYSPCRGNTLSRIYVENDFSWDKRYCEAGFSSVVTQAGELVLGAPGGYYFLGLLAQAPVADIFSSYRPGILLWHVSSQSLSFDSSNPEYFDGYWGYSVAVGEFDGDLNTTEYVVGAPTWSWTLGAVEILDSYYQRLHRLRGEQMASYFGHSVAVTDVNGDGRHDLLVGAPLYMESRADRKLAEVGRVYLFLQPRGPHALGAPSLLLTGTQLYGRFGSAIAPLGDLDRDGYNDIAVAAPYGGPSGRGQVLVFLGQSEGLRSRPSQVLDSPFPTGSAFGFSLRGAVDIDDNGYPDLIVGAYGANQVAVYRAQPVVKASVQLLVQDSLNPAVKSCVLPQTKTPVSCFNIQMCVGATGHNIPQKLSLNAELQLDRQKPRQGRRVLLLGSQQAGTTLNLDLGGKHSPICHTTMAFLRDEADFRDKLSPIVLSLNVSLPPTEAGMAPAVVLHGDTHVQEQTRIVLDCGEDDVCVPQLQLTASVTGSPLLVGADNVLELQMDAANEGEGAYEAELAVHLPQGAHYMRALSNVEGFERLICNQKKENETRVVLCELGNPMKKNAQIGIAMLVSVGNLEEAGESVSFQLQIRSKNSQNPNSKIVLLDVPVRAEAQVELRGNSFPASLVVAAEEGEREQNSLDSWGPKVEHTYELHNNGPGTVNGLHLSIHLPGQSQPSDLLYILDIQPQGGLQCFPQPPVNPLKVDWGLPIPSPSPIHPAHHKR
T1 sequence (P08514 891-1039 limits assumed): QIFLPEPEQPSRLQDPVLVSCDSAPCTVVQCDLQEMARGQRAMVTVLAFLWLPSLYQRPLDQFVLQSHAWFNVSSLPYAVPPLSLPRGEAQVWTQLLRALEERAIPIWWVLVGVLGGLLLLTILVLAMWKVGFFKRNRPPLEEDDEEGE
T1 sequence (P05106 27-788): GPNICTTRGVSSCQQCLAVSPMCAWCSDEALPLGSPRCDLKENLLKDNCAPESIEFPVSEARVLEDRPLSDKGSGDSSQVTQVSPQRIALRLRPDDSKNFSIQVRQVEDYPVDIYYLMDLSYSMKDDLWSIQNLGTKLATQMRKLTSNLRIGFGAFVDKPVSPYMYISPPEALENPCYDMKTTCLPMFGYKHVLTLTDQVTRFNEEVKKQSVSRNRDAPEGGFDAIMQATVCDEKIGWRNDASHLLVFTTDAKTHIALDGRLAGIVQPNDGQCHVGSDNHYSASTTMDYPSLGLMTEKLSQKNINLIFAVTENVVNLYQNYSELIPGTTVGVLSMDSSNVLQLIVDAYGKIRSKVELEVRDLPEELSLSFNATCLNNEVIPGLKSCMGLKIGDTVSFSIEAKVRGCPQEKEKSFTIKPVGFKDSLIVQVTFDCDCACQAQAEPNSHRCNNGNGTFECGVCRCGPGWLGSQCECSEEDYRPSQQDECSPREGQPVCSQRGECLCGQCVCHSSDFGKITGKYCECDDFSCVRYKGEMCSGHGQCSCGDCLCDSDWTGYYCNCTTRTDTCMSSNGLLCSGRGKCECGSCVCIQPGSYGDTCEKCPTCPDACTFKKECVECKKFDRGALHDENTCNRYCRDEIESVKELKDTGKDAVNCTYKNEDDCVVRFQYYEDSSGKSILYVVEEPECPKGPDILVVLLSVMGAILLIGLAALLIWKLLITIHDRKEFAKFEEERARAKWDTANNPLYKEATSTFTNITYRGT

On to “3-(3-(3-Aminopropyl)ureido)benzoyl-L-aspartyl-L-phenylglycine [Example 10]”, for which the IC50 in experiment [1] (setting [3]) was 8500 nM; in experiment [1] (setting [4]) it was 3000 nM.

In the case of “3-((3-(4-(Aminoiminomethyl)phenyl)ureido)acetylamino)-3-phenyl-propionic acid [Example 7]”, the IC50 is 3000 nM in experiment [1] (setting [3]) and 1500 nM in experiment [1] (setting [4]).

For the compound `N=C(N)c1ccc(NC(=O)NCC(=O)N[C@@H](CC(=O)O)C(=O)N[C@H](C(=O)O)c2ccccc2)cc1` [Example 1], the IC50 in experiment [1] (setting [3]) was 150 nM; in experiment [1] (setting [4]), 100 nM. Besides, the Ki in experiment [2] worked out at 0.03 µM.

For the compound “(3-(4-(Aminoiminomethyl)phenyl)ureido)acetyl-L-aspartyl-L-phenylglycine methyl ester trifluoroaetate [Example 6]”, the IC50 in experiment [1] (setting [3]) is 750 nM; in experiment [1] (setting [4]), 300 nM.

Consider “(3-(4-(Aminoiminomethyl)phenyl)ureido)acetyl-L-aspartylbenzylamide [Example 8]”, for which the IC50 in experiment [1] (setting [3]) and in experiment [1] (setting [4]) was 2000 nM in each case.
